One assay concerns HT-1080 cells. The experiment in a line: Modulatory profile of lethal small molecules (effect of Fer-1 on lethality of various compounds). The format is cell-based, human. The settings on record: resynthesized Fer-1 0.5 μM. How it is done: The modulatory effect (Me) for drug-drug interactions was computed as follows. First, plate-based background correction was performed using Alamar Blue values from empty (cell-free) wells included on each plate. Next, within each experiment, 100% viability is determined as the average Alamar Blue score for cells treated with modulator=DMSO and lethal=DMSO, and all Alamar Blue values were scaled from 0 to 1 with the DMSO×DMSO condition=1. The individual effects of each modulator and lethal (e.g. in the presence of DMSO) at all tested doses were then ascertained. […] Next, BExp was compared to the actual observed viability. For each informative drug-drug interaction (i.e. modulator=“DFO”, modulator concentration=100 μM, lethal=Erastin) the modulatory effect (Me) was equivalent to the maximum observed deviation, positive or negative, from BExp. By default, Me in DMSO-treated cells is equal to 0. This formula was empirically determined to provide a useful measure of modulation that is robust to differences in the shapes of individual dose-response curves for different inhibitors and lethal molecules. Me values for each inhibitor-lethal drug combination were hierarchically clustered and plotted as a heatmap using the heatmaps.2 function of the gplots library in R. […]

Assay [1] relates to ERK phosphorylation in HT-1080 cells. The experiment in a line: Western blotting of ERK phosphorylation. The format is cell-based, human. The protocol: Cells were trypsinized, pelleted, and washed once in PBS. Cells were lysed for 20 minutes in buffer containing: 50 mM HEPES pH 7.4, 40 mM NaCl, 2 mM EDTA, 0.5% Triton X-100, 1.5 mM sodium orthovanadate, 50 mM NaF, 10 mM sodium pyrophosphate, 10 mM sodium β-glycerophosphate, and protease inhibitor tablet (Roche, Nutley, N.J.). Unlysed cells and debris were pelleted for 10 minutes at 10,000 rpm in a benchtop microcentrifuge at 4° C., and the supernatant was removed and mixed with 5×SDS loading buffer. Samples were separated by SDS-polyacrylamide gel electrophoresis. Western transfer was performed using the iBlot system (Invitrogen). Membrane was blocked for 1 hour in Licor Odyssey Blocking Buffer (LI-COR) and incubated in primary antibody overnight at 4° C. Following three 5-minute washes in Tris-buffered saline (pH 7.4) with 1% Tween-20 (TBS-T), membrane was incubated with secondary antibodies for 45 minutes in the dark. The membrane was washed again in TBST for three 5-minute washes with protection from light and scanned using the Odyssey Imaging System (LI-COR). Antibodies used were as follows: rabbit anti-phospho p42/44 MAPK (Cell Signaling Technology, #9101) and rabbit anti-p42/44 MAPK (Cell Signaling Technology, #9102). The secondary antibody was IR dye 800CW goat anti-rabbit IgG (LI-COR).
For orientation: Immunoblotting shows a protein as a band on a membrane.

Assay [2] concerns ROS production in HT-1080 cells. The experiment in a line: Analysis of reactive oxygen species production by flow cytometry (H2DCFDA, C11-BODIPY, MitoSOX). Type of assay: cell-based, human. As to conditions: erastin 10 μM; HT-1080 cells; H2DCFDA, C11-BODIPY. On the technique in general: Flow cytometry measures light scatter and fluorescence of single cells or particles in a stream.
Method: The day before the experiment, 200,000 cells/well were seeded in 6-well dishes (Corning Inc., Corning, N.Y.). […] Data was collected from the FL1 (H2DCFDA, C11-BODIPY) or FL2 channel (MitoSOX). A minimum of 10,000 cells were analyzed per condition.

Assay [3] can be described thus: 2,2-diphenyl-1-picrylhydrazyl (DPPH) assay, cell-free antioxidant potential. As to conditions: test compound 0.05 mM, absorbance at 517 nm. How it is done:
The stable radical DPPH (Blois, 1958) was dissolved in methanol to a final concentration of 0.05 mM. 1 mL of DPPH solution was added to 2 μL of each test compound dissolved in DMSO. The final concentration of each test compound was 0.05 mM. Samples were inverted several times and allowed to incubate at room temperature for 10 minutes. Samples were then aliquoted to white 96-well solid-bottom dishes (Corning) and absorbance at 517 nm was recorded using a TECAN M200 plate reader. All values were normalized to background (methanol only). The experiment was repeated twice. Results within each trial normalized to DMSO (=1.0), then averaged across trials.
On the technique in general: Loss of DPPH colour is used to gauge radical scavenging.

In assay [4] the test system is rat organotypic hippocampal slice culture (OHSC). The experiment in a line: Glutamate-induced excitotoxic cell death in organotypic hippocampal slice cultures (PI uptake). The format is cell-based. The settings on record: 5 mM L-glutamate 3 hours; 24 hours after; DG, CA1, CA3; Fer-1 2 μM, CPX 5 μM, MK-801 10 μM. The protocol: OHSCs were cultured as previously described (Morrison et al., 2002) with approval from Columbia University's Institutional Animal Care and Use Committee (IACUC). Briefly, Sprague Dawley rat pups (P8-P10) were rapidly decapitated, and the hippocampus placed in ice-cold Gey's balanced salt solution (Sigma). 400 μm thick sections were cut using a Mcllwain tissue chopper and immediately plated on Millicell cell culture inserts (Millipore, Billerica, Mass.) in Neurobasal (Invitrogen) media supplemented with B27 (1×, Invitrogen), GlutaMAX (1 mM, Invitrogen), and D-glucose (4.5 mg/mL, Sigma) at 37° C. and 5% CO2. After 2 days in vitro (DIV), the media was changed to medium containing serum comprised of 50% DMEM (Sigma), 25% heat-inactivated horse serum (Sigma), 25% Hank's balanced salt solution (Sigma), GlutaMAX (1 mM, Invitrogen), and D-glucose (4.5 mg/mL, Sigma). Medium was changed every 2-3 days.
After 10-14 DIV, OBSCs were exposed to an excitotoxic injury consisting of a 3 hour exposure to 5 mM L-glutamate in SFM (Morrison et al., 2002). Only healthy OHSCs defined as those with less than 5% cell death in all regions of the hippocampus (DG, CA3, CA1) pre-injury were used for experiments. After the 3 hour exposure, the cultures were placed in fresh serum free media (SFM) containing 75% DMEM, 25% Hank's balanced salt solution, GlutaMAX (1 mM), D-glucose (4.5 mg/mL) until cell death was quantified at 24 hours. If drugs were added, they were added at the same time as glutamate.
Quantification of cell death has been described previously (Cater et al., 2007; Morrison et al., 2002). Brightfield images of the hippocampal cultures were taken before injury for identification of regions of interest (ROI) including the dentate gyrus (DG), CA3 and CA1. Propidium iodide (PI, Invitrogen) was used as a fluorescent signal for cell death, and images were taken before the induction of injury and 24 hours following injury. […] Percentage cell death was expressed as the number of pixels in the ROI above a threshold in the PI fluorescent image divided by the total number of pixels in the ROI.

The structures appear in SMILES notation.

`CCOC(=O)c1ccc(NC2CCCCC2)c(N)c1` [Fer-1, ferrostatin-1]: the “specificity of death inhibition against various lethal compounds” value in the assay on HT-1080 cells was “specifically inhibited RSL-induced death, but not cell death induced by other oxidative lethal compounds and apoptosis-inducing agents”. In assay [1], the ERK phosphorylation entry was “did not inhibit ERK phosphorylation”. Further, in assay [2], the “effect on erastin-induced ROS accumulation” value is “prevent erastin-induced accumulation of cytosolic and lipid ROS”. For the same molecule, in assay [3], the “intrinsic antioxidant capability (DPPH)” value is on record as “readily oxidized the stable radical 2,2-diphenyl-1-picrylhydrazyl (DPPH)”. Further, in assay [4], the “glutamate-induced cell death (PI uptake)” value is “attenuated significantly and to an almost identical extent”.

The record behind these values is patent publication US9580398B2, “Compounds, compositions, and methods for modulating ferroptosis and treating excitotoxic disorders” (The Trustees of Columbia University in the City of New York, priority 2012, dated 2017).
